From PubChem BioAssay AID423 (Public Access to Neuroactive & Anticonvulsant Chemical …, 2006)
Activity calls are given as the source filed them.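 Rule for the calls: active = any mouse or rat spared a seizure in electric shock or chemically induced seizure tests, at any tested dose or timing; inactive = no animal spared a seizure in any test.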

Test system: mouse/rat MES, scMET, 6Hz seizure protection, qualitative
Experiment: mouse and rat seizure model outcomes with toxicity – qualitative, MES, scMET, 6Hz, i.p. and oral, in vivo study, summary (AID 423)

SMILES	outcome
CCCCC1C(=O)N(c2ccccc2)N(c2ccccc2)C1=O	active; inactive
O=C1CN=C(c2ccccc2Cl)c2cc([N+](=O)[O-])ccc2N1	active
O=C1CC2OCC=C3CN4CCC56c7ccccc7N1C5C2C3CC46 (stereo not given)	active; inactive
CCC1(c2ccccc2)C(=O)NC(=O)NC1=O	active
CCN(CC)CC(=O)Nc1c(C)cccc1C	active
CCC1(C)CC(=O)NC1=O (stereo not given)	active; inactive
NC(=O)N1c2ccccc2C=Cc2ccccc21	active
COC(=O)Nc1nc2ccc(C(=O)c3ccccc3)cc2[nH]1	active; inactive
CC(=O)OCC[N+](C)(C)C	active; inactive
CC(C)[N+](C)(CCOC(=O)C1c2ccccc2Oc2ccccc21)C(C)C	active; inactive
